In patent US8846937B2, “Mono quaternary ammonium salts and methods for modulating neuronal nicotinic acetylcholine receptors” (University of Kentucky Research Foundation, priority 2006, dated 2014):

Assays:
[1] = test system: nicotinic receptors, NIC-evoked [^3H]DA release from rat striatal slices; assay: Inhibition of nicotine-evoked [^3H]dopamine release from superfused rat striatal slices; assay type: cell-based; conditions: 1 h, 100 nM analog superfused 60 minutes prior to NIC (10 μM)
Description: Rat striatal slices (500 μm thickness, 6-8 mg wet weight) were incubated for 30 minutes in Krebs buffer (118 mM NaCl, 4.7 mM KCl, 1.2 mM MgCl2, 1.0 mM NaH2PO4, 1.3 mM CaCl2, 11.1 mM glucose, 25 mM NaHCO3, 0.11 mM L-ascorbic acid, and 0.004 mM disodium EDTA at pH 7.4, and saturated with 95% O2/5% CO2) in a metabolic shaker at 34° C. Slices were rinsed with 15 mL of fresh buffer, and were incubated for an additional 30 minutes in fresh buffer containing 0.1 μM [^3H]dopamine (DA; 6 slices/3 mL). Subsequently, slices were rinsed with 15 mL of fresh buffer and transferred to a glass superfusion chamber. Slices were superfused (1.0 mL/min) for 60 minutes with Krebs buffer containing nomifensine (10 μM) and pargyline (10 μM), and maintained at 34° C., pH 7.4, with continual aeration (95% O2/5% CO2). Two five minute samples (5 mL each) were collected to determine basal outflow of [^3H]DA. The test compounds of Formula (I) were added to the superfusion buffer after the collection of the second sample, and were maintained in the buffer until 12 consecutive five minute samples were collected. Subsequently, S-(−)-nicotine (10 μM) was added to the buffer, and an additional 12 consecutive five minute samples were collected. At the end of the experiment, each slice was solubilized, and the [^3H]content of the tissue determined.
Radioactivity in the superfusate and tissue samples was determined by liquid scintillation spectroscopy. Fractional release of tritium collected in each sample was divided by the total tritium present in the tissue at the time of sample collection, and the fractional release of tritium collected was expressed as a percentage of total tritium. Basal [^3H]outflow was calculated from the average of the tritium collected in the two five minute samples just before addition of a test compound of Formula (I). The sum of the increase in collected tritium resulting from either exposure to a test compound of Formula (I), or exposure to S(−) nicotine in the absence and presence of a test compound of Formula (I) equaled total [^3H]overflow. [^3H]Overflow was calculated by subtracting the [^3H]outflow during an equivalent period of pre-stimulation from the values in samples collected during and after drug exposure. Inasmuch as the radio-labeled compounds were not separated and identified, the tritium collected in superfusate is referred to as either [^3H]outflow or [^3H]overflow, rather than as [^3H]DA. [^3H]Overflow primarily represents [^3H]DA in the presence of nomifensine and pargyline in the superfusion buffer.
The quaternary analogs of Formula (I) were also evaluated for their ability to inhibit NIC-evoked [^3H]DA release. In these experiments, the striatal slices were superfused for 60 minutes with 100 nM concentration of the quaternary analogs prior to NIC (10 μM) exposure. Antagonist activity was evaluated by comparing the NIC-evoked [^3H]overflow in the absence and presence of the analogs. The relative order of potency of the quaternary analogs of Formula (I) for inhibition of NIC-evoked [^3H]DA release from rat striatal slices is illustrated in Table 1.
^aData are % inhibition at 100 nM concentration of the mono quaternary analogs for at least 1-3 independent experiments; with the exception of when a Ki value in μM is provided, in which case a full concentration effect was evaluated. Specific binding in the [^3H]NIC binding assay is calculated as the difference between the total binding of 3 nM [^3H]NIC and nonspecific binding in the presence of 10 μM cold nicotine. Specific binding for the [^3H]MLA binding assay is calculated as the difference between the total binding of 2.5 nM [^3H]MLA to the receptors alone and its nonspecific binding in the presence of 1 μM cold MLA. Analog-induced inhibition of nicotine-evoked [^3H]DA release is calculated as a percent of that in the absence of the mono quaternary ammonium analog. ND indicates not determined.

[2] = molecular target: T1, Rat Striatal Nicotinic Receptors ([^3H]NIC binding) (Rattus norvegicus, UniProt P09483+P12390); assay: Inhibition of [^3H]nicotine binding to brain membranes; conditions: 3 nM [^3H]NIC; for inhibition at 0.1 µM: % inhibition at 100 nM analog, nonspecific 10 μM nicotine; for Ki: full concentration effect
T1 construct: Whole brain, excluding cortex and cerebellum, was homogenized; from tissue; host or cells: rat brain membranes (whole brain excluding cortex and cerebellum)
Description: (§1) Test compounds of Formula (I), representing the mono quaternary nicotine analogs of the present invention, were evaluated to determine the effect of a test compound on nicotine-binding and methyllycaconitine-binding mediated by nicotine acetylcholine receptors.
(§2) Homogenate was centrifuged (25,000 g, 15 min, 4° C.). Pellets were resuspended in 20 volumes of buffer and incubated at 37° C., for 10 min, cooled to 4° C. and centrifuged (25,000 g, 15 min, 4° C.). Pellets were resuspended and centrifuged using the same conditions. […] Upon use, final pellets were resuspended in ˜20 volumes of assay buffer. Samples (250 μl) contained 100-140 μg of membrane protein, 3 nM [^3H]nicotine or 3 nM [^3H]methyllycaconitine (MLA), and test compounds of Formula (I) (100 nM) in assay buffer containing 50 mM Tris. A control sample absent test compounds of Formula (I) was also prepared. In the [^3H]nicotine-binding assay and [^3H]MLA-binding assay, nonspecific-binding was determined in the presence of 10 μM nicotine and 10 μM MLA, respectively. Incubations proceeded for 60 min at a room temperature using 96-well plates, and were terminated by harvesting on Unifilter-96 GF/B filter plates presoaked in 0.5% polyethylenimine, using a Packard FilterMate harvester. After washing 5 times with 350 μl ice-cold assay buffer, the filter plates were dried (60 min, 4° C.), bottom-sealed, and filled with Packard's MicroScint 20 cocktail (40 μl/well). After 60 min, filter plates were top-sealed, and levels of radioactivity were determined using a Packard TopCount. Protein concentrations were determined using the Bradford dye-binding procedure using bovine serum albumin as a standard protein.
Specific binding in the [^3H]NIC binding assay is calculated as the difference between the total binding of 3 nM [^3H]NIC and nonspecific binding in the presence of 10 μM cold nicotine. […] Analog-induced inhibition of nicotine-evoked [^3H]DA release is calculated as a percent of that in the absence of the mono quaternary ammonium analog. ND indicates not determined.

[3] = molecular target: T2, Rat Striatal Nicotinic Receptors ([^3H]MLA binding) (Rattus norvegicus, UniProt Q05941); assay: Inhibition of [^3H]methyllycaconitine (MLA) binding to brain membranes; conditions: for inhibition at 0.1 µM: % inhibition at 100 nM analog, 2.5 nM [^3H]MLA, nonspecific 1 μM MLA (footnote); for Ki: full concentration effect, 2.5 nM [^3H]MLA (footnote)
T2 construct: Whole brain, excluding cortex and cerebellum, was homogenized; from tissue; host or cells: rat brain membranes (whole brain excluding cortex and cerebellum)
Description: as §1
as §2, with “Samples (250 μl) contained 100-140 μg of membrane protein, 3 nM [^3H]nicotine or 3 nM [^3H]methyllycaconitine (MLA), and test compounds of Formula (I) (100 nM) in assay buffer containing 50 mM Tris.” left out, “In the [^3H]nicotine-binding assay and [^3H]MLA-binding assay, nonspecific-binding was determined in the presence of 10 μM nicotine and 10 μM MLA, respectively.” left out, “protein. […]” for “protein.”

T1 sequence (P09483 31-630): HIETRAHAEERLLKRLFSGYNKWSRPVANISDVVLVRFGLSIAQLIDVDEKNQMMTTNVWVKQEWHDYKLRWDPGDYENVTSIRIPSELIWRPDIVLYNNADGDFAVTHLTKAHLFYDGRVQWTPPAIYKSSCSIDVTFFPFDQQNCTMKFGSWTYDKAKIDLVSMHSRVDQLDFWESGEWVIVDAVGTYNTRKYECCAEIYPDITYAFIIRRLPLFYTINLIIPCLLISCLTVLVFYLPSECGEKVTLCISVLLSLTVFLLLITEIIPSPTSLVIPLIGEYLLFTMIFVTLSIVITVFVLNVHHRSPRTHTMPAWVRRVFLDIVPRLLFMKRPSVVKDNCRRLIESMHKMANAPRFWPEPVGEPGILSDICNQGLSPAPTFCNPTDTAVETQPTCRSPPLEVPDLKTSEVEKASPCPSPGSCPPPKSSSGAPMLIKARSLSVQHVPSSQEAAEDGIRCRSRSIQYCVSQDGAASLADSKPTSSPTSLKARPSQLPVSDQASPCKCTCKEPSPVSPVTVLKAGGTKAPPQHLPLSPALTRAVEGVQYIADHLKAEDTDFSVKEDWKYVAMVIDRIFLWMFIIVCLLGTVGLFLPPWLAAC
T1 sequence (P12390 25-500): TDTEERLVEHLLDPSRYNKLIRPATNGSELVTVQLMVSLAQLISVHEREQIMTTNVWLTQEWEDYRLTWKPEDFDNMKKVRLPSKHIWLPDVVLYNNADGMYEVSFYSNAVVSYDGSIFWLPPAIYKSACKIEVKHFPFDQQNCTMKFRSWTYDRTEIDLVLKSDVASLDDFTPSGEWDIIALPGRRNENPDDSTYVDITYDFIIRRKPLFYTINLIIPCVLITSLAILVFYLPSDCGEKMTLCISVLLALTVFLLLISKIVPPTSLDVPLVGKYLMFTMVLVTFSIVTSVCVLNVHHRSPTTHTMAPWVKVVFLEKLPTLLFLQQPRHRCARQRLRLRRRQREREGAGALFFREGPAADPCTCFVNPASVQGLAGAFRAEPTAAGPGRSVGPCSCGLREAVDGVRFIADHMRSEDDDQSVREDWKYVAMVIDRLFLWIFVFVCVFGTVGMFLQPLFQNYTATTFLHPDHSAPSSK
T2 sequence (Q05941 23-502): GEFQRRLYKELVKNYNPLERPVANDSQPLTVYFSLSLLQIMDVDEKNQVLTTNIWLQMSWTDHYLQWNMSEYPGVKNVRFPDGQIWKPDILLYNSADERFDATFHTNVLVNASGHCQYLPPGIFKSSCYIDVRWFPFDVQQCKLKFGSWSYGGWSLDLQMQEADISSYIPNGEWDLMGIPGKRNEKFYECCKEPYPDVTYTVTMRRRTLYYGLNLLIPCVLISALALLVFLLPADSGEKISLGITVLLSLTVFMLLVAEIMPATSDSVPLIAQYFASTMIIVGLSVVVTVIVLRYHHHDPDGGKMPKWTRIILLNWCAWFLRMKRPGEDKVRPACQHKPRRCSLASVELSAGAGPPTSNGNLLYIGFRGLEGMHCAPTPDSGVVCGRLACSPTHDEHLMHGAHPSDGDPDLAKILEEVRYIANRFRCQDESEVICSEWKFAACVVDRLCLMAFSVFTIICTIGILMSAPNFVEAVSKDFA

Structure (SMILES) | inhibition at 0.1 µM [1] | inhibition at 0.1 µM [2] | inhibition at 0.1 µM [3] | Ki [2] | Ki [3]
c1ccc(-c2ccc(CCCCC[n+]3cccc4ccccc43)cc2)cc1 | 61% | – | – | – | –
Cc1cc[n+](CCCCCCCCc2ccccc2)c(C)c1 | 14% | 0% | 9% | – | –
CN1CCC[C@H]1c1ccc[n+](CCCC#Cc2ccc(-c3ccccc3)cc2)c1 | 47% | 20% | 6% | – | –
Cc1cc(C)c[n+](CCCCCCCCCCCCCc2cccnc2)c1 | 35% | 0% | 0% | – | –
CCCCc1ccc(C#CCC[n+]2ccc3c(c2)CCCC3)cc1 | 70% | – | – | > 100 µM | 3.7 µM
CCCCc1ccc(CCCC[n+]2cccc(CCCO)c2)cc1 | 64% | 0% | 0% | – | –
Cc1cc(C)c[n+](CCCCCc2ccc(-c3ccccc3)cc2)c1 | 51% | – | – | – | –
CCCCc1ccc(C#CCC[n+]2cccc(CC)c2)cc1 | – | 0% | 0% | – | –
CCCCc1ccc(CCCC[n+]2cc(C)cc(C)c2)cc1 | – | 0% | 0% | – | –
Cc1cccc[n+]1CCCCCCCCc1ccccc1 | 62% | 0% | 0% | – | –
Cc1cc[n+](CCCCCCCCCCCCCc2cccnc2)cc1C | 20% | 3% | 0% | – | –
Cc1cc[n+](CCCC#Cc2ccc(-c3ccccc3)cc2)cc1C | 20% | 0% | 8% | – | –
Cc1cccc[n+]1CCCCCc1ccc(-c2ccccc2)cc1 | 45% | – | – | – | –
CCCCc1ccc(C#CCC[n+]2cc(C)cc(C)c2)cc1 | – | 0% | 0% | – | –
Cc1ccc[n+](CCCCCCCCCCCCCc2cccnc2)c1 | 31% | 0% | 2% | – | –
Cc1ccc[n+](CCCCCc2ccc(-c3ccccc3)cc2)c1 | 55% | 4% | 7% | – | –
Cc1cc[n+](CCCCCCCCc2ccccc2)cc1 | 12% | – | – | > 100 µM | 27 µM
CCCCc1ccc(CCCC[n+]2ccc(C)cc2)cc1 | 58% | 5% | 0% | – | –
CCCCc1ccc(CCCC[n+]2ccc3c(c2)CCCC3)cc1 | – | – | – | > 100 µM | 14 µM
Cc1cc[n+](CCCCCc2ccc(-c3ccccc3)cc2)c(C)c1 | 39% | – | – | – | –
Cc1cc[n+](CCCCCc2ccc(-c3ccccc3)cc2)cc1C | 38% | – | – | – | –

Structure (SMILES) | inhibition at 0.1 µM [1] | inhibition at 0.1 µM [2] | inhibition at 0.1 µM [3] | Ki [2] | Ki [3]
C(#Cc1ccc(-c2ccccc2)cc1)CCC[n+]1ccc2ccccc2c1 | – | 0% | 6% | – | –
CCCCc1ccc(C#CCC[n+]2cccc(C)c2)cc1 | 11% | 0% | 0% | – | –
C(#Cc1ccc(-c2ccccc2)cc1)CCC[n+]1ccccc1 | 34% | 2% | 6% | – | –
c1ccc(-c2ccc(CCCCC[n+]3ccc4ccccc4c3)cc2)cc1 | – | 0% | 6% | – | –
CCCCc1ccc(C#CCC[n+]2ccc(C)c(C)c2)cc1 | – | 0% | 10% | – | –
Cc1ccc[n+](CCCCCCCCc2ccccc2)c1 | 0% | – | – | > 100 µM | > 100 µM
Cc1ccc[n+](CCCC#Cc2ccc(-c3ccccc3)cc2)c1 | 41% | 0% | 2% | – | –
C(#Cc1ccc(-c2ccccc2)cc1)CCC[n+]1cccc(-c2ccccc2)c1 | – | 8% | 6% | – | –
CCCCc1ccc(CCCC[n+]2ccccc2C)cc1 | – | 0% | 0% | – | –
CCCCc1ccc[n+](CCCC#Cc2ccc(-c3ccccc3)cc2)c1 | 50% | 0% | 9% | – | –
CCCCc1ccc(CCCC[n+]2ccc(C)c(C)c2)cc1 | – | 0% | 0% | – | –
c1ccc(-c2ccc(CCCCC[n+]3ccccc3)cc2)cc1 | 30% | – | – | – | –
CCCCc1ccc(CCCC[n+]2cccc(C)c2)cc1 | 33% | 4% | 2% | – | –
CCCCc1ccc(C#CCC[n+]2ccc(C)cc2)cc1 | 11% | 6% | 3% | – | –
Cc1cc[n+](CCCCCc2ccc(-c3ccccc3)cc2)cc1 | 18% | – | – | – | –
CCCCc1ccc[n+](CCCCCc2ccc(-c3ccccc3)cc2)c1 | 43% | – | – | – | –
CN1CCC[C@H]1c1ccc[n+](CCCCCc2ccc(-c3ccccc3)cc2)c1 | 51% | – | – | – | –
Cc1cc[n+](CCCC#Cc2ccc(-c3ccccc3)cc2)c(C)c1 | 5% | 2% | 6% | – | –
C(#Cc1ccc(-c2ccccc2)cc1)CCC[n+]1cccc2ccccc21 | 23% | 1% | 7% | – | –
CCCCc1ccc(C#CCC[n+]2cccc(CCCO)c2)cc1 | – | 0% | 0% | – | –
